Results taken from ChEMBL document CHEMBL3045429, “Exploration of antimicrobial potential of pyrazolo[3,4-b]pyridine scaffold bearing benzenesulfonamide and trifluoromethyl moieties” (2013).
Converted amounts (≈) assume the structure as drawn. The source made the active and inactive calls. No cut-off for these calls is given here.

Experiments:
[1] = system: Staphylococcus aureus; assay: Antibacterial activity against Staphylococcus aureus MTCC 96 assessed as growth inhibition after 24 hr by agar well diffusion method; format: functional; settings: MTCC 96, 24 h
[2] = system: Staphylococcus aureus; assay: Antibacterial activity against Staphylococcus aureus MTCC 96 assessed as growth inhibition at 4 mg/mL after 24 hr by agar well diffusion method; format: functional; settings: for zone of inhibition at 4000 µg/mL: MTCC 96, 24 h, read-out: DIZ
[3] = system: Bacillus subtilis; assay: Antibacterial activity against Bacillus subtilis MTCC 121 assessed as growth inhibition after 24 hr by agar well diffusion method; format: functional; settings: MTCC 121, 24 h
[4] = system: Candida albicans; assay: Antifungal activity against Candida albicans MTCC 227 assessed as growth inhibition at 4 mg/mL after 24 hr by agar well diffusion method; format: functional
[5] = system: Escherichia coli; assay: Antibacterial activity against Escherichia coli MTCC 1652 assessed as growth inhibition at 4 mg/mL after 24 hr by agar well diffusion method; format: functional, organism-based
[6] = system: Bacillus subtilis; assay: Antibacterial activity against Bacillus subtilis MTCC 121 assessed as growth inhibition at 4 mg/mL after 24 hr by agar well diffusion method; format: functional; settings: for zone of inhibition at 4000 µg/mL: MTCC 121, 24 h, read-out: DIZ
[7] = system: Saccharomyces cerevisiae; assay: Antifungal activity against Saccharomyces cerevisiae MTCC 170 assessed as growth inhibition at 4 mg/mL after 24 hr by agar well diffusion method; format: functional

| SMILES | MIC [1] [mg/L] | zone of inhibition at 4000 µg/mL [2] [mm] | MIC [3] [mg/L] | growth inhibition (GI) [4] | growth inhibition (GI) [5] | zone of inhibition at 4000 µg/mL [6] [mm] | growth inhibition (GI) [7] | growth inhibition (GI) [2] | growth inhibition (GI) [6] |
| --- | --- | --- | --- | --- | --- | --- | --- | --- | --- |
| Cc1ccc(-c2nn(-c3ccc(S(N)(=O)=O)cc3)c3nc(C(F)(F)F)cc(C(F)(F)F)c23)cc1 | 128 (≈ 256 µM) | 15.6 | 128 (≈ 256 µM) | inactive | inactive | 16.6 | inactive | – | – |
| NS(=O)(=O)c1ccc(-n2nc(-c3ccc(Cl)cc3)c3c(C(F)(F)F)cc(-c4ccccc4)nc32)cc1 | – | – | – | inactive | inactive | – | inactive | inactive | inactive |
| COc1ccc(-c2cc(C(F)(F)F)c3c(-c4ccc(C)cc4)nn(-c4ccc(S(N)(=O)=O)cc4)c3n2)cc1 | 256 (≈ 475 µM) | 14.6 | 128 (≈ 238 µM) | inactive | inactive | 17.3 | inactive | – | – |
| Cc1cc(C(F)(F)F)c2c(-c3ccc(Cl)cc3)nn(-c3ccc(S(N)(=O)=O)cc3)c2n1 | 64 (≈ 137 µM) | 18.6 | 128 (≈ 274 µM) | inactive | inactive | 17.6 | inactive | – | – |
| NS(=O)(=O)c1ccc(-n2nc(-c3ccc(Cl)cc3)c3c(C(F)(F)F)cc(-c4ccc(Br)cc4)nc32)cc1 | – | – | – | inactive | inactive | – | inactive | inactive | inactive |
| NS(=O)(=O)c1ccc(-n2nc(-c3ccc(Cl)cc3)c3c(C(F)(F)F)cc(-c4ccc(F)cc4)nc32)cc1 | – | – | – | inactive | inactive | – | inactive | inactive | inactive |
| Cc1ccc(-c2nn(-c3ccc(S(N)(=O)=O)cc3)c3nc(C)cc(C(F)(F)F)c23)cc1 | 128 (≈ 287 µM) | 15.3 | 128 (≈ 287 µM) | inactive | inactive | 16.3 | inactive | – | – |
| COc1ccc(-c2cc(C(F)(F)F)c3c(-c4ccc(Cl)cc4)nn(-c4ccc(S(N)(=O)=O)cc4)c3n2)cc1 | – | – | – | inactive | inactive | – | inactive | inactive | inactive |
| Cc1ccc(-c2cc(C(F)(F)F)c3c(-c4ccc(Cl)cc4)nn(-c4ccc(S(N)(=O)=O)cc4)c3n2)cc1 | – | – | – | inactive | inactive | – | inactive | inactive | inactive |
| Cc1ccc(-c2nn(-c3ccc(S(N)(=O)=O)cc3)c3nc(-c4ccccc4)cc(C(F)(F)F)c23)cc1 | 64 (≈ 126 µM) | 18.3 | 128 (≈ 252 µM) | inactive | inactive | 17.6 | inactive | – | – |
| Cc1ccc(-c2nn(-c3ccc(S(N)(=O)=O)cc3)c3nc(-c4ccc(Br)cc4)cc(C(F)(F)F)c23)cc1 | 256 (≈ 436 µM) | 14.3 | 128 (≈ 218 µM) | inactive | inactive | 15.6 | inactive | – | – |
| NS(=O)(=O)c1ccc(-n2nc(-c3ccccc3)c3c(C(F)(F)F)cc(-c4ccc5ccccc5c4)nc32)cc1 | 256 (≈ 470 µM) | 13.6 | 256 (≈ 470 µM) | inactive | inactive | 14.6 | inactive | – | – |
| NS(=O)(=O)c1ccc(-n2nc(-c3ccc(Cl)cc3)c3c(C(F)(F)F)cc(-c4ccc5ccccc5c4)nc32)cc1 | 128 (≈ 221 µM) | 15.3 | 128 (≈ 221 µM) | inactive | inactive | 16.3 | inactive | – | – |
| Cc1ccc(-c2cc(C(F)(F)F)c3c(-c4ccc(C)cc4)nn(-c4ccc(S(N)(=O)=O)cc4)c3n2)cc1 | 128 (≈ 245 µM) | 15.3 | 128 (≈ 245 µM) | inactive | inactive | 16.3 | inactive | – | – |
| Cc1ccc(-c2nn(-c3ccc(S(N)(=O)=O)cc3)c3nc(-c4ccc(Cl)cc4)cc(C(F)(F)F)c23)cc1 | 128 (≈ 236 µM) | 15.6 | 128 (≈ 236 µM) | inactive | inactive | 16.3 | inactive | – | – |
| Cc1ccc(-c2nn(-c3ccc(S(N)(=O)=O)cc3)c3nc(-c4ccc(F)cc4)cc(C(F)(F)F)c23)cc1 | > 256 | 13.6 | 128 (≈ 243 µM) | inactive | inactive | 15.6 | inactive | – | – |
| NS(=O)(=O)c1ccc(-n2nc(-c3ccc(Cl)cc3)c3c(C(F)(F)F)cc(-c4ccc(Cl)cc4)nc32)cc1 | – | – | – | inactive | inactive | – | inactive | inactive | inactive |
